One block for each molecule: values may come before it. Where no end group is shown, it is not given here. [ ]: non-standard residue; d: D form. pS = N[C@@H](COP(=O)(O)O)C(=O)O
Tests used:
CIN85 SH3C domain [1] = molecular target: T1, CIN85 SH3C domain (Homo sapiens, UniProt Q96B97); assay: NMR titration (chemical shift perturbations) of 15N-labeled SH3C domain with synthetic CIN85-PRM1 peptides; type: binding; details: for difference in binding energy compared to wild-type peptide (ΔΔG, net energetic contribution of the mutated residue): calculated from the KD's of mutant and wild-type peptide to SH3C; for fold increase of KD compared to wild-type peptide: mutant peptide binding to SH3C domain
T1 construct: His7 (with TEV protease cleavage site) (N, cleaved yes); made in house; host or cells: Escherichia coli BL21(DE3)
T1 sequence (Q96B97 267-328 limits assumed): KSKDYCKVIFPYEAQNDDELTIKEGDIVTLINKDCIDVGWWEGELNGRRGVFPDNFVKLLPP
Description: (§1) The recognition of PRM by SH3 domains typically depends on the presence of positively charged residues, such as arginines at the motif’s N- or C-terminus, which often form cation−π interactions with conserved tryptophan residues in the SH3 binding interface.[30] […] We therefore used CIN85-PRM1 mutant peptide binding to the SH3C domain to determine the role of both arginines (R227 and R229) in this interaction. […] Because we knew that this interaction was in part driven by cation−π interactions, we anticipated a net energetic contribution on the order of −12 ± 6 kJ/mol if such an interaction would be disturbed by the mutation.[32] […] In the context of the whole protein, local concentration and/or cooperative effects could increase the actual strength of this interaction considerably. The residue S230 is adjacent to R229 and a known site for activation-induced phosphorylation in CIN85[33],[34] (see also Figure S4). To investigate the effect of S230s involvement in this interaction, we incorporated a phosphoserine (pS230), a S230D, and a S230A mutation into the synthetic peptide.
(§2) with 1000 resampled datasets with replacement. After obtaining the dissociation constant, the
(§3) Gibbs free energy of this interaction was calculated using the following relation: […]
(§4) Their difference in free energy can then be calculated as follows: […]
(§5) The value of ∆∆G here has the meaning of the stability contribution or net energetic contribution
(§6) of the residue that was mutated. […]

CIN85 SH3C domain [2] = assay: as above; type: binding, human; details: same peptide
Description: as §1, §2, §3, §4, §5, §6

CIN85 SH3A domain [3] = molecular target: T2, CIN85 SH3A domain (Homo sapiens, UniProt Q96B97); assay: NMR titration (chemical shift perturbations) of 15N-labeled SH3A domain with synthetic CIN85-PRM1 peptide; type: binding; details: isolated SH3A domain, CSP of 15N-labeled domain, error of fitted KD from bootstrap resampling, read-out: KD (mM), binary SH3:peptide interaction
T2 construct: GST (with thrombin cleavage site) (N); made in house; host or cells: Escherichia coli BL21(DE3)
T2 sequence (Q96B97 1-58 limits assumed): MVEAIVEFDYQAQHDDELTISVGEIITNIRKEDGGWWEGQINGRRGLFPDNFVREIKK
Description: (§7) We further used NMR titrations to assess the interaction of CIN85-PRM1 with isolated SH3 domains of CIN85, observing chemical shift perturbations (CSP) in the ^15N-labeled SH3 domains upon titration with a synthetic 14-residue peptide of the sequence ^219FKDKPIKLRPRSIE^232 (see Figure S2). […] We mapped the CSP onto the first model of the NMR structure of SH3C (PDB: 2k9g) in Figure 2A. Binding to the CIN85-PRM1 peptide occurs through the conserved binding site, involving the RT-loop (residues 278–292), the N-Src-loop (residues 300–307), and also the 3_10-helix (residues 320–322) of SH3C (see Figure 2B). […]
(§8) with 1000 resampled datasets with replacement. After obtaining the dissociation constant, the Gibbs free energy of this interaction was calculated using the following relation: […]
(§9) with R as the ideal gas constant (8.314 Jmol−1K−1) and T as the absolute temperature in K. This quantity is useful when comparing two similar interactions that differ in their KD, i.e. variants of the same peptide that have a single-point mutation or a post-translational modification (PTM) and […]
as §4
(§10) Determination of rotational correlation times and translational diffusion coefficients Residue-specific cross-correlated relaxation rates were determined at 800 MHz via the 2D TRACT experiment1, 12-13,using variable delays from 1-190 ms. […]

CIN85 SH3B domain [4] = molecular target: T3, CIN85 SH3B domain (Homo sapiens, UniProt Q96B97); assay: NMR titration (chemical shift perturbations) of 15N-labeled SH3B domain with synthetic CIN85-PRM1 peptide; type: binding; details: isolated SH3B domain, CSP of 15N-labeled domain, error of fitted KD from bootstrap resampling, read-out: KD (mM), binary SH3:peptide interaction
T3 construct: GST (with thrombin cleavage site) (N); made in house; host or cells: Escherichia coli BL21(DE3)
T3 sequence (Q96B97 98-157 limits assumed): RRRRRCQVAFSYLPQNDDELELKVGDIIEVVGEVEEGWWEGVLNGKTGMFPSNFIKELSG
Description: as §7, §8, §9, §4, §10

CIN85 SH3C domain [5] = molecular target: T4, CIN85 SH3C domain (human, UniProt Q96B97-1 262-333); assay: NMR titration; 15N-labelled isolated SH3 domain titrated with synthetic 14-residue peptide; chemical shift perturbations; KD fitted, error by bootstrap resampling; details: both partners purified
T4 construct: the NMR structure PDB 2k9g of SH3C was used to map the shifts; 15N-labelled for NMR; The limits of PDB 2k9g may differ from those of the construct; also called C-terminal SH3 domain
T4 sequence: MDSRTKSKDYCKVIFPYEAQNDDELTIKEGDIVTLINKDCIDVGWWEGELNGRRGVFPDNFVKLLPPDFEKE

CIN85 SH3B domain [6] = molecular target: T5, CIN85 SH3B domain (human); assay: as above; details: both partners purified
T5 chain: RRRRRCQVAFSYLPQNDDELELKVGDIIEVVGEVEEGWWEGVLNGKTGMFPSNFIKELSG

CIN85 SH3A domain [7] = molecular target: T6, CIN85 SH3A domain (human); assay: as above; details: both partners purified
T6 chain: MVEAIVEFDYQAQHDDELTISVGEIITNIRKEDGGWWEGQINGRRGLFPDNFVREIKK

Molecule: Ac-FKDKPIKLRPASIE-NH2 [^219FKDKPIKLRPASIE^232]
difference in binding energy compared to wild-type peptide (ΔΔG, net energetic contribution of the mutated residue) (CIN85 SH3C domain [1]): 1.51 ± 0.239 kcal/mol
fold increase of KD compared to wild-type peptide (CIN85 SH3C domain [1]): 12 fold

Molecule: Ac-FKDKPIKLAPRSIE-NH2 [^219FKDKPIKLAPRSIE^232]
difference in binding energy compared to wild-type peptide (ΔΔG, net energetic contribution of the mutated residue) (CIN85 SH3C domain [1]): 0.784 ± 0.0478 kcal/mol
fold increase of KD compared to wild-type peptide (CIN85 SH3C domain [1]): 4 fold

Molecule: Ac-FKDKPIKLRPRSIE-NH2 [^219FKDKPIKLRPRSIE^232]
fold lower dissociation constant (KD) of SH3C than SH3A (CIN85 SH3C domain [2]; SH3C versus SH3A): 3 fold
fold lower dissociation constant (KD) of SH3C than SH3B (CIN85 SH3C domain [2]; SH3C versus SH3B): 5 fold
Kd (CIN85 SH3A domain [3]): 0.73 ± 0.02 mM
Kd (CIN85 SH3B domain [4]): 1.09 ± 0.05 mM

B2: CIN85-PRM1 peptide, wild type (residues 219-232) (peptide)
peptide: FKDKPIKLRPRSIE
notes: CIN85, human, residues 219-232 of the linker between SH3B and SH3C, holding the proline-rich motif CIN85-PRM1; also called wild-type CIN85-PRM1 peptide; source: synthetic peptide
Kd (CIN85 SH3B domain [6]): 1090 µM
Kd (CIN85 SH3C domain [5]): 210 µM
Kd (CIN85 SH3A domain [7]): 730 µM

B7: CIN85-PRM1 peptide S230D (residues 219-232) (peptide)
peptide: FKDKPIKLRPRDIE
notes: CIN85, human, residues 219-232 with the phosphomimetic S230D; also called S230D peptide; source: synthetic peptide
Kd (CIN85 SH3C domain [5]): 710 µM

Second part, the molecule after the results:

Kd (CIN85 SH3C domain [1]; isolated SH3C domain, NMR titration, CSP of 15N-labeled domain, error of fitted KD from bootstrap resampling, read-out: KD (mM), binary SH3:peptide interaction): > 2.45 mM
Molecule: Ac-FKDKPIKLAPASIE-NH2 [^219FKDKPIKLAPASIE^232]

Kd (CIN85 SH3C domain [5]): 2350 µM
B1: CIN85-PRM1 peptide pS230 (residues 219-232) (peptide)
peptide: FKDKPIKLRPR[pS]IE
notes: CIN85, human, residues 219-232 with phosphoserine at S230; also called pS230 peptide; source: synthetic peptide

Kd (CIN85 SH3C domain [5]): 200 µM
B3: CIN85-PRM1 peptide S230A (residues 219-232) (peptide)
peptide: FKDKPIKLRPRAIE
notes: CIN85, human, residues 219-232 with S230A; also called S230A peptide; source: synthetic peptide

Kd (CIN85 SH3C domain [5]): 2450 µM
B4: CIN85-PRM1 peptide R229A (residues 219-232) (peptide)
peptide: FKDKPIKLRPASIE
notes: CIN85, human, residues 219-232 with R229A; also called R229A mutant peptide; source: synthetic peptide

Kd (CIN85 SH3C domain [5]): 750 µM
B5: CIN85-PRM1 peptide R227A (residues 219-232) (peptide)
peptide: FKDKPIKLAPRSIE
notes: CIN85, human, residues 219-232 with R227A; also called R227A mutant peptide; source: synthetic peptide

Kd (CIN85 SH3C domain [5]): > 2450 µM
B6: CIN85-PRM1 peptide R227A/R229A (residues 219-232) (peptide)
peptide: FKDKPIKLAPASIE
notes: CIN85, human, residues 219-232 with R227A and R229A; also called R227A/R229A mutant peptide; source: synthetic peptide

From publication PMC10786037, “Autoinhibition in the Signal Transducer CIN85 Modulates B Cell Activation” (Journal of the American Chemical Society, 2023)
